Measurements reported in patent publication US9926319B2, “Pyridyl piperidines” (MERCK PATENT GMBH, priority 2014, dated 2018).

Assays:
Wnt pathway = test: Cellular assay for Wnt pathway activity (luciferase reporter cell based assay); conditions: 24 h, HEK293 luciferase reporter cell line (ER-DSH, TCF dependent promoter), induced with estrogen (1 μM), read-out: 7df3 IC50
[1] = CLint (intrinsic clearance) assay, microsomal incubation; type: in vitro ADME, Human; conditions: human, liver microsomes, pH 7.4, human liver microsomes 0.5 mg/mL protein, NADPH, 37° C., up to 30 min
Procedure: 2. CLint (Intrinsic Clearance) Assay
A Tecan Genesis workstation (RWS ASY 150/8) was used to perform the microsomal incubations. Analysis was carried out using a Waters ACQUITY UPLC system coupled to an ABSciex API3000 mass spectrometer. Data analysis was performed using Assay Explorer (Symyx).
0.1 M potassium phosphate buffer pH 7.4 containing 1 mM MgCl2
15 mM NADPH in phosphate buffer
5.0 mg protein/mL liver microsomes in phosphate buffer
Each experiment consists of 12 test and 2 reference compounds. The reference compounds are incubated as a cocktail.
Dilution of test compounds was done in 2 steps from a 10 mM DMSO stock solution. First 4 μL stock solution was added to 196 μL of 20% DMSO in potassium phosphate buffer pH 7.4. In a second step 10 μL of the first dilution were added to […] potassium phosphate buffer and 100 μL internal standard solution to a final concentration of 0.8 μM. 100 μL of the final compound dilution were aliquoted into a 96 deep well plate. 12.5 μL liver microsomes were added to each well (0.5 mg/mL final protein concentration) and the samples preincubated for 5 min at 37° C. and 800 rpm agitation.
After the preincubation, 250 μL cold acetonitrile were added to the 0 min samples to prevent a reaction. Following this, 12.5 μL NADPH solution were added to all wells to start the incubation, with the exception of the 0 min and 30 min controls without cofactor, where the NADPH was substituted for phosphate buffer.
The incubations were stopped after 5, 10, 20 and 30 min by adding 250 μL cold acetonitrile to the individual wells.
The quenched samples were then centrifuged at 4000 g for 1 h at 4° C. 100 μL of the supernatant were transferred into 96 well plates for analysis.
The metabolic stability of each compound was determined by measurement of the change in LC-MS/MS peak area over time. Assay Explorer software was used to automatically calculate the slope k of the decline. The intrinsic clearance (CLint) of each compound was then calculated according to the formula: CLint(μL/min/mg protein)=k1000/protein concentration.
CLint is shown for each compound in Table 3 below.

| IC50 (Wnt pathway) [nM] | microsomal CLint at 0.8 μM [1] [µL/min/mg] | Compound |
| --- | --- | --- |
| 22 | 40 | CC(C)n1cc(-c2ccc(-c3cncc(Cl)c3N3CCC4(CC3)CNC(=O)O4)cc2)cn1 [Example 36, 8-{3-Chloro-5-[4-(1-isopropyl-1H-pyrazol-4-yl)-phenyl]-pyridin-4-yl}-1-oxa-3,8-diaza-spiro[4.5]decan-2-one] |
| 33 | 16 | CC(C)n1cc(-c2ccc(-c3cncc(C(F)(F)F)c3N3CCC4(CC3)CNC(=O)O4)cc2)cn1 [Example 38, 8-{3-[4-(1-Isopropyl-1H-pyrazol-4-yl)-phenyl]-5-trifluoromethyl-pyridin-4-yl}-1-oxa-3,8-diaza-spiro[4.5]decan-2-one] |
| 14 | 12 | CS(=O)(=O)CCn1cc(-c2ccc(-c3cncc(Cl)c3N3CCC4(CC3)CNC(=O)O4)cc2)cn1 [Example 39, 8-(3-Chloro-5-{4-[1-(2-methanesulfonyl-ethyl)-1H-pyrazol-4-yl]-phenyl}-pyridin-4-yl)-1-oxa-3,8-diaza-spiro[4.5]decan-2-one] |
| 3.9 | 61 | N#CCCn1cc(-c2ccc(-c3cncc(Cl)c3N3CCC4(CC3)CNC(=O)O4)cc2)cn1 [Example 40, 3-(4-{4-[5-Chloro-4-(2-oxo-1-oxa-3,8-diaza-spiro[4.5]dec-8-yl)-pyridin-3-yl]-phenyl}-pyrazol-1-yl)-propionitrile] |
| 2.4 | 57 | CN1c2ccc(-c3cncc(Cl)c3N3CCC4(CC3)C[C@@H](C(F)(F)F)NC4=O)cc2CS1(=O)=O [Example 42, (S)-8-[3-Chloro-5-(1-methyl-2,2-dioxo-2,3-dihydro-1H-2l6-benzo[c]isothiazol-5-yl)-pyridin-4-yl]-3-trifluoromethyl-2,8-diaza-spiro[4.5]decan-1-one] |
| 50 | 11 | CC(C)(O)Cn1cc(-c2ccc(-c3cncc(Cl)c3N3CCC4(CC3)CNC(=O)O4)cc2)cn1 [Example 43, 8-(3-Chloro-5-{4-[1-(2-hydroxy-2-methyl-propyl)-1H-pyrazol-4-yl]-phenyl}-pyridin-4-yl)-1-oxa-3,8-diaza-spiro[4.5]decan-2-one] |
| 5.1 | < 10 | CN1c2ccc(-c3cncc(Cl)c3N3CCC(N)(C(N)=O)CC3)cc2CS1(=O)=O [Example 44, 4-Amino-5′-chloro-3′-(1-methyl-2,2-dioxo-2,3-dihydro-1H-2l6-benzo[c]isothiazol-5-yl)-3,4,5,6-tetrahydro-2H-[1,4′]bipyridinyl-4-carboxylic acid amide] |
| 42 | 23 | O=C1NCC2(CCN(c3c(Cl)cncc3-c3ccc4c(c3)CS(=O)(=O)C4)CC2)O1 [Example 48, 8-[3-Chloro-5-(2,2-dioxo-2,3-dihydro-1H-2l6-benzo[c]thiophen-5-yl)-pyridin-4-yl]-1-oxa-3,8-diaza-spiro[4.5]decan-2-one] |
| 23 | 28 | O=C1NCC2(CCN(c3c(Cl)cncc3-c3ccc4cnccc4c3)CC2)O1 [Example 50, 8-(3-Chloro-5-isoquinolin-6-yl-pyridin-4-yl)-1-oxa-3,8-diaza-spiro[4.5]decan-2-one] |
| 0.02 | 70 | CCC1=NNC(=O)C12CCN(c1c(Cl)cncc1-c1ccc3c(c1)CS(=O)(=O)N3C)CC2 [Example 52, 8-[3-Chloro-5-(1-methyl-2,2-dioxo-2,3-dihydro-1H-2l6-benzo[c]isothiazol-5-yl)-pyridin-4-yl]-4-ethyl-2,3,8-triaza-spiro[4.5]dec-3-en-1-one] |
| 15 | 42 | CN1c2ccc(-c3cncc(Cl)c3N3CCC4(CC3)C[C@H](C(F)(F)F)NC4=O)cc2CS1(=O)=O [Example 53, (R)-8-[3-Chloro-5-(1-methyl-2,2-dioxo-2,3-dihydro-1H-2l6-benzo[c]isothiazol-5-yl)-pyridin-4-yl]-3-trifluoromethyl-2,8-diaza-spiro[4.5]decan-1-one] |
